The test system of data set [1] is A/PR/8/34 (H1N1).
For data set [2], the system named is A/HebeiXinhua/SWL1106/2017 (oseltamivir- and amantadine-resistant H1N1).
The test system is the same in data set [3]. The experiment in a line: microbe, parasite or virus in culture. The settings on record: Influenza A virus, H1N1, MDCK.

The structures appear in SMILES notation. Converted amounts (≈) assume the structure as drawn. “And” between values parts separate entries of the source, which are not always exact repeats. Identical values can stand only once. Like-named read-outs stand apart in the source and are kept apart here. Where only a bound is given, the exact number is not on record here.

`COc1c(O)cc2oc(-c3ccc(O)cc3)cc(=O)c2c1O` [Dinatin]: in data set [1], the “SI, selection index (TC50/IC50)” value is more than 2.66. Broadly, the IC50 is the point on the concentration scale where inhibition reaches its midpoint. A low value points to higher potency. For the molecule `COc1ccc(-c2cc(=O)c3c(O)c(OC)c(OC)cc3o2)cc1O` [Eupatorin], the IC50 was 87.17 ± 5.23 µg/mL and 69.16 ± 2.12 µg/mL and 89.29 ± 5.22 µg/mL in data set [2]; 71.8 ± 6.58 µg/mL (≈ 209 µM) in data set [3].

`NC12CC3CC(CC(C3)C1)C2` [Amantadine] showed an IC50 in data set [3] of more than 100 µg/mL. Regarding `CCOC(=O)C1=C[C@@H](OC(CC)CC)[C@H](NC(C)=O)[C@@H](N)C1` [Oseltamivir], the IC50 in data set [3] was more than 100 µg/mL.

The record behind these values is publication PMC8689007, “In Silico Prediction and Bioactivity Evaluation of Chemical Ingredients Against Influenza A Virus From Isatis tinctoria L” (Frontiers in Pharmacology, 2021).
